Where “and” joins values, the source holds several entries; their conditions need not be identical. Equal values may be shown once. Read-outs that look alike come from different tables or passages of the source.
Assays:
[1] = tested on: KLH-specific Th1 cells (clone D3); experiment: IL-2-induced proliferation of Th1 cells in the presence of butyrate derivatives; format: cell-based, C57BL/10 mice; settings: for Suppression of IL-2-induced proliferation of Th1 cells: 10% Con A CM, various concentrations, proliferation after 2 days
Procedure: KLH-specific Th1 cells (clone D3) are stimulated with IL-2 (10% Con A CM) in the presence of different concentrations of n-butyrate or butyrate derivatives. In FIG. 2A Th1 cell proliferation is measured after 2 days. In FIG. 2B, the inhibitors are washed out after 24 hours, and the Th1 cells reincubated with fresh IL-2-containing medium. Proliferation of the Th1 cells restimulated with IL-2 in the absence of the inhibitors is measured after an additional 2 days. This experiment was repeated three times, and the proliferation data represents the means of the […] experiments.
The KLH-specific were developed in C57BL/10 mice, and characterized as Th1 clones based on their ability to secrete IL-2, but not IL-4. The Th1 clones were passed every 7–14 days using KLH, irradiated syngeneic spleen cells as antigen-presenting cells (APC), and IL-2-containing Con A CM using a previously described protocol (Gilbert et al., 1990).
To test the ability of the butyrate derivatives to suppress T cell activity […], Th1 cells [(5×10^4 cells/well in 96 well plates (Costar)] are stimulated with 10% IL-2-containing Con A CM in the presence of various concentrations of different butyrate derivatives. In some cultures, Th1 cell proliferation is measured after two days. In other cultures, the Th1 cells are washed after 24 hours, and fresh IL-2-containing medium is added. Proliferation is measured in the washed, IL-2-restimulated cultures after an additional 2 days.

[2] = tested on: total anti-ovalbumin antibody in the serum; experiment: Primary anti-ovalbumin antibody production in vivo (ELISA), derivatives on Days 1–3; design: species or system C57BL/10 mice; settings: 0.091 mmol ip Days 1–3; serum day 10; versus saline
Procedure: C57BL/10 mice are injected ip on Day 0 with ovalbumin followed by ip injections of saline, or one of three different butyrate derivatives on Days 1–3.
The butyrate derivatives are tested for their ability to suppress lymphocyte activity in vivo. C57BL/10 mice (5 mice/group) are injected ip with 100 μg of ovalbumin in conjunction with complete Freund's adjuvant on Day 0. In one experiment, the mice also receive one ip injection per day of the butyrate derivatives (0.091 mmol) on Days 1–3. Serum samples are obtained 10 days after the initial injection with ovalbumin, and tested for the presence of anti-ovalbumin antibodies using an ELISA. To perform the ELISA 96 well plates (Costar 3595) are first incubated with ovalbumin (100 μl/well of 100 μg/ml in PBS) overnight at 4° C. The plates are then washed 4 times with PBS and 0.5% Tween 20, blocked with 1% fetal calf serum for 30 minutes at 37° C., and washed again. Individual serum samples are added (diluted 1/100 or 1/1000 in PBS), and the plates are incubated for 2 hours at 20° C. The plates were next washed 7 times with PBS/Tween, and alkaline phosphate (AP)-labeled goat anti-mouse IgG, IgA, IgM (H+L) (Zymed) is added ( 1/1000) for 1 hour at 20° C. The plates are again washed 7 times with PBS/Tween, alkaline phosphate substrate (1 mg/ml) is added. After 10 minutes, Ig levels are quantified by an ELISA reader (absorbance 405 nm). The concentration of anti-ovalbumin is determined by comparison with a standard curve obtained using mouse anti-ovalbumin antibody (Sigma; St. Louis, Mo.). To measure isotype-specific anti-ovalbumin antibodies, serum samples (diluted at 1/300 or 1/1000) are incubated on the ovalbumin-coated plates as described above. […] Ig levels are presented as OD measurements.

[3] = humans; perfused at doses as high as 2 g/kg/day (Perrine et al., 1994); cited from earlier work
[4] = tested on: Anti-HGG antibody in serum; experiment: Primary anti-HGG antibody response in mice treated with n-butyrate; format: in vivo; design: Anti-HGG antibody in serum of individual mice: unit not given here; settings: for Anti-HGG antibody in serum, group mean (x) / Anti-HGG antibody in serum of individual mice: ELISA day 9; for Anti-HGG antibody in serum, group mean (x): mean of 5 mice; for Anti-HGG antibody in serum of individual mice: HGG 100 μg ip day 0
Text: Prior to testing the suppressive effects of butyrate prodrugs in vivo, the ability of n-butyrate to inhibit a primary antibody response in mice was examined.

[5] = Daniel et al., 1989, cited from earlier work
[6] = Experiment 1, 5.5 mg n-butyrate ip days 2–5
[7] = Experiment 2, 5.5 mg n-butyrate ip days 2–6

CCCC(=O)OCCN1CCN(C(=O)CCC)CC1.Cl [BEB, 2-(4-Butanoylpiperazinyl)ethyl butanoate hydrochloride]
Suppression of IL-2-induced proliferation of Th1 cells [1]: comparable to n-butyrate
Proliferation to IL-2 after compounds are washed out ([1]; washed after 24 hours, fresh IL-2 medium, additional 2 days): regained their ability to proliferate to IL-2
Effect on primary antigen-specific antibody production in vivo [2]: significantly less antigen-specific antibody than control mice

CCCC(=O)NCCN1CCOCC1.Cl [MEBA, 2-(4-Morpholinyl)ethyl butanamide hydrochloride]
Suppression of IL-2-induced proliferation of Th1 cells [1]: does not suppress
Effect on primary antigen-specific antibody production in vivo [2]: unable to suppress

CCCC(=O)O.CCCC(=O)O.CCCC(=O)O.CCCC(=O)O.N=C(N)NCCC[C@H](N)C(=O)O.N=C(N)NCCC[C@H](N)C(=O)O.N=C(N)NCCC[C@H](N)C(=O)O [arginine salt of butyrate]
Toxicity [3]: nontoxic

CCCC(=O)O [n-butyrate]
Anti-HGG antibody in serum, group mean (x) [4, 6]: x = 86 ± 72
Anti-HGG antibody in serum of individual mice [4, 6]: 202 and 91 and 29 and 83 and 24
Anti-HGG antibody in serum, group mean (x) [4, 7]: x = 12 ± 11
Anti-HGG antibody in serum of individual mice [4, 7]: 12 and 6 and 4 and 9 and 31
Suppression of primary antibody response ([4]; mice, n-butyrate ip, versus control): 40–50%
half-life in vivo [5]: six
half-life in vivo ([5]; listed as n-buytyrate): 3 to 6 min

Source: US7034020B2, “Derivatives of butyric acid and uses thereof” (The University of Arkansas for Medical Science, priority 1999, dated 2006)
